Where a SMILES comes first, the peptide text is derived from it. [ ]: non-standard residue; d: D form. Trp(6-Cl) = N[C@@H](Cc1c[nH]c2cc(Cl)ccc12)C(=O)O; Pmp = N[C@@H](Cc1ccc(CP(=O)(O)O)cc1)C(=O)O; Ac3c = NC1(C(=O)O)CC1; Aib = CC(C)(N)C(=O)O
Columns and labels:
[1] = target: Tumour suppressor p53/oncoprotein Mdm2 (Homo sapiens, UniProt P04637+Q00987); assay: Binding affinity to human MDM2/p53; assay type: protein assay
[2] = target: T1, E3 ubiquitin-protein ligase Mdm2 (Homo sapiens, UniProt Q00987); assay: Antagonist activity at human GST-tagged MDM2 assessed as inhibition of binding to full length p53
T1 sequence (Q00987 whole entry): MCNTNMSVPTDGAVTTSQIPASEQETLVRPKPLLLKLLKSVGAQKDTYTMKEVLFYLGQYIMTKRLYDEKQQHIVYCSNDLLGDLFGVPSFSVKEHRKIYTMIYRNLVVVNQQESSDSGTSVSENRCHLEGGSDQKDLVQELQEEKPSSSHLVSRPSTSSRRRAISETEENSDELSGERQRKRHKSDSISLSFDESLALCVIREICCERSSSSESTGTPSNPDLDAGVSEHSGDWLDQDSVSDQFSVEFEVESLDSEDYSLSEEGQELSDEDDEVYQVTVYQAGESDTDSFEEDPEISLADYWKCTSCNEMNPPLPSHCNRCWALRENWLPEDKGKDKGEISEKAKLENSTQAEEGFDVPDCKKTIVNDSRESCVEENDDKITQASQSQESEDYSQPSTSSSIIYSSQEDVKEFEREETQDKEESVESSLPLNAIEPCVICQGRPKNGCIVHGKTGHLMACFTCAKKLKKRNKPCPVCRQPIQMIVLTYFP

[3] = target: T1, E3 ubiquitin-protein ligase Mdm2; assay: Antagonist activity at human MDM2

Chain of Tumour suppressor p53/oncoprotein Mdm2 (P04637 whole entry): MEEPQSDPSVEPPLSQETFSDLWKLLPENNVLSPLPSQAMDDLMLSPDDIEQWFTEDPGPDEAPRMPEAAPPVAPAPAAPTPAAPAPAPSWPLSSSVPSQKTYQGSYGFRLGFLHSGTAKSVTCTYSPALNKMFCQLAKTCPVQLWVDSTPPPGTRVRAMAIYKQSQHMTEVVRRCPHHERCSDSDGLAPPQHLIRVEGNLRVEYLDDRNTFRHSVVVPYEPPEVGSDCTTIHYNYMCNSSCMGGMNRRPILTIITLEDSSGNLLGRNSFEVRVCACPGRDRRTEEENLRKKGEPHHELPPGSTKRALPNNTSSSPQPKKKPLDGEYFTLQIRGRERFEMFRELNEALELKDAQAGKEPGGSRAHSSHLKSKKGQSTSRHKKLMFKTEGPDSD
Chain of Tumour suppressor p53/oncoprotein Mdm2 (Q00987 whole entry): as the sequence (Q00987 whole entry) above

SMILES	IC50 [3]	further results
CCOc1cc(C(C)(C)C)ccc1C1=N[C@@H](c2ccc(Cl)cc2)[C@@H](c2ccc(Cl)cc2)N1C(=O)N1CCN(CCCS(C)(=O)=O)CC1	–	Kd [1]: 10.7 nM
CSCC[C@H](NC(=O)[C@H](Cc1ccccc1)NC(C)=O)C(=O)NC(C)(C)C(=O)N[C@@H](Cc1ccc(CP(=O)(O)O)cc1)C(=O)N[C@@H](Cc1c[nH]c2cc(Cl)ccc12)C(=O)N[C@@H](CCC(=O)O)C(=O)NC1(C(=O)N[C@@H](CC(C)C)C(N)=O)CC1 (Ac-FM[Aib][Pmp][Trp(6-Cl)]E[Ac3c]L-NH2)	–	IC50 [2]: 5 nM
CSCC[C@H](NC(=O)[C@H](Cc1ccccc1)NC(=O)[C@H](CCCN=C(N)N)NC(=O)[C@@H]1CCCN1C(=O)[C@H](CCSC)NC(C)=O)C(=O)N[C@@H](CC(=O)O)C(=O)N[C@@H](Cc1ccc(O)cc1)C(=O)N[C@@H](Cc1c[nH]c2ccccc12)C(=O)N[C@@H](CCC(=O)O)C(=O)NCC(=O)N[C@@H](CC(C)C)C(=O)N[C@@H](CC(N)=O)C(N)=O (Ac-MPRFMDYWEGLN-NH2)	313 nM	–
CSCC[C@H](NC(=O)[C@@H](N)Cc1ccccc1)C(=O)N[C@@H](CC(=O)O)C(=O)N[C@@H](Cc1ccc(O)cc1)C(=O)N[C@@H](Cc1c[nH]c2ccccc12)C(=O)N[C@@H](CCC(=O)O)C(=O)NCC(=O)N[C@@H](CC(C)C)C(N)=O (H-FMDYWEGL-NH2)	8900 nM	–

Source: ChEMBL document CHEMBL2380265, “Inhibitors of the p53/hdm2 protein-protein interaction-path to the clinic” (Bioorg Med Chem Lett, 2013)
